Patent US20070027634A1, “Molecular hepatotoxicology modeling” (priority 2002, published 2007)

Columns and labels:
[1] = cited from earlier work
[2] = cited from earlier work; remark: listed apart in the source
[3] = in vivo; cited from earlier work
[4] = Serum clinical chemistry of dosed rats (studies by the present inventors); conditions: AY-25329; as early as 6 hours after the first dose; 14 day study
[5] = Light microscopic analysis of liver and kidney of dosed rats (present inventors)
[6] = dogs, after treatment; cited from earlier work
[7] = rat liver mitochondria; cited from earlier work
[8] = cited from earlier work; remark: listed apart in the source
[9] = mice; cited from earlier work
[10] = rats and mice; cited from earlier work
rat hepatocytes = conditions: cited from earlier work
[11] = rats and hamsters; cited from earlier work
[12] = hamster livers; cited from earlier work
[13] = tested on: human hepatoma cell lines; conditions: cited from earlier work
[14] = in vivo; cited from earlier work; remark: listed apart in the source
[15] = 14 days of repeated dosing, 250 mg/kg/day
[16] = male Sprague Dawley rats, 0.1, 1, 2, 3, 4 mL/kg ip, […] po
[17] = male Sprague Dawley rats, peak within 48 hours post dose
[18] = acute administration, male rats

## CC(=O)Nc1ccc2c(c1)Cc1ccccc1-2 [2-AAF, 2-acetylaminofluorene]
[1]; rats
  ALT (alanine aminotransferase) level in serum or plasma: elevated
  AST (aspartate aminotransferase) level in serum or plasma: elevated
[2]; rats
  liver finding (pathology): cirrhosis-like changes in the liver

## C#C[C@]1(O)CC[C@H]2[C@@H]3CCc4cc(O)ccc4[C@H]3CC[C@@]21C [17α-ethinylestradiol]
[1]; male rats
  plasma cholesterol level: decrease
  plasma level of bile salts: not changed
  plasma level of bilirubin: not changed
  plasma triglyceride level: decrease
[1]; rats
  ALT (alanine aminotransferase) level in serum or plasma: not changed
  AST (aspartate aminotransferase) level in serum or plasma: not changed
[2]; male rats
  activity of liver enzyme alkaline phosphatase: initially showed significant increases, but enzyme levels decreased after 3 days
  activity of liver enzyme leucine aminopeptidase: initially showed significant increases, but enzyme levels decreased after 3 days
  bile flow: decrease
  bilirubin output: increased
  glutathione (GSH) output: decreased
[2]; rats
  liver finding (pathology): reversible intrahepatic cholestasis
  liver weight: increase

## S=C=Nc1cccc2ccccc12 [ANIT, α-naphthylisothiocyanate]
[3]
  activity of catalase: decreased
  activity of superoxide dismutase: decreased
  serum glutamic oxaloacetic transaminase: increase
  serum glutamic pyruvic transaminase: increase
  serum level of alkaline phosphatase: increase
  serum level of total bilirubin: increase
  total bile flow: reduced

## O=C(CCN1CCN2CCCC2C1)N1c2ccccc2Sc2ccc(Cl)cc21 (stereo not drawn) [AY-25329]
[4]
  serum level of ALT: statistically significant increases
  serum level of BUN: statistically significant increases
  serum level of cholesterol: statistically significant increases
  serum level of creatinine: statistically significant increases
  serum level of triglycerides: statistically significant increases
[5]; [15]
  kidney finding: nephrosis
  liver finding: alterations in the peripheral lobes of the liver and in the cytoplasm of hepatocytes
[5]; liver, 6 and 24 hours
  hepatocytic mitotic figures (light microscopy): increased number
  liver glycogen content (light microscopy): decreased

## ClC(Cl)(Cl)Cl [CCl4, carbon tetrachloride]
[1]; male SD rats, 25 μL/kg po, as early as 2 hours after administration
  serum α-glutathione s-transferase (α-GST) level: Significant increases
[1]; [16]
  time after administration within which ALT level increases: ≤ 3 h
  time after administration within which AST level increases: ≤ 3 h
[1]; [17]
  peak increase of ALT level: 5-10 fold
  peak increase of AST level: 5-10 fold
[2]; acute administration, male rats, post dose
  time of peak centrilobular necrosis and inflammatory infiltration: 24 to 48 h
[2]; [18]
  time to cytoplasmic accumulation of lipids in hepatocytes: 1 to 3 h
  time to focal necrosis and hydropic swelling of hepatocytes: 5 to 6 h
  time to full restoration of the liver: ≤ 14 days

## Cl.Nc1nc2c(Cc3ccsc3)c[nH]c2c(=O)[nH]1.O [CI-1000, 4H-pyrrolo:3,2-d:pyrimidin-4-one, 2-amino-3,5-dihydro-7-(3-thienylmethyl)-monohydrochloride monohydrate]
[6]
  serum ALT level: increased

## CC(=O)O[C@]1(C(C)=O)CC[C@H]2[C@@H]3C=C(Cl)C4=CC(=O)[C@@H]5C[C@@H]5[C@]4(C)[C@H]3CC[C@@]21C [CPA, Cyproterone acetate]
[2]; rats, single oral dose
  time after which continuous DNA repair activity was observed: 16 h
[2]; rats
  occurrence of S phase cells in rat liver: increased

## CN(C)N=O [DMN, dimethylnitrosamine]
[1]; rats
  ALT (alanine aminotransferase) level in serum or plasma: increased
  serum SOD: decreased
  serum malondialdehyde (MDA): increased
[2]; rats
  hydroxyproline levels (indicator of fibrosis): elevated
  liver finding (pathology): severe centrilobular congestion and haemorrhagic necrosis

## Cc1cccc(Nc2cc(Cl)nc(SCC(=O)O)n2)c1C [Wy-14643]
[7]
  oxidative phosphorylation: capable of uncoupling oxidative phosphorylation

## CC(=O)Nc1ccc(O)cc1 [acetaminophen]
[1]; rats
  ALT (alanine aminotransferase) level in serum or plasma: statistically significant elevations
  AST (aspartate aminotransferase) level in serum or plasma: statistically significant elevations
[2]; rats
  liver finding (pathology): hepatocellular necrosis
  time after dosing at which hepatotoxicity can be observed: 24 h

## CC(O)(CS(=O)(=O)c1ccc(F)cc1)C(=O)Nc1ccc(C#N)c(C(F)(F)F)c1 (stereo not drawn) [bicalutamide]
[8]; humans
  ALT / glutamic-pyruvic transaminase (GPT) level: elevated levels
  AST / glutamic-oxalacetic transaminase (GOT) level: elevated levels
  alkaline phosphatase (AL-P) level: elevated levels
[8]; prostate cancer patients
  gamma guanosine 5′-triphosphate (gamma-GTP) level: elevated levels
[2]; rats
  levels of CYP3A1: elevated levels

## ClC(Cl)Cl [chloroform, Chloroform]
[9]
  levels of 5-methylcytosine and of the methylated c-myc gene: Decreased levels
[10]
  level of BUN: increased levels
  level of phosphatidyl-ethanolamine: decreased levels
  level of serum creatinine: increased levels
  level of tissue glutathione (GSH): decreased levels
[8]; humans, poisoning
  markers of hepatocellular regeneration (alpha-fetoprotein, retinol-binding protein, gamma-glutamyl transferase and des-gamma-carboxyprothrombin): increased levels
[8]; humans
  alkaline phosphatase (AL-P) level: decreased levels
[2]; [18]
  time to cytoplasmic accumulation of lipids in hepatocytes: 1 to 3 h
  time to focal necrosis and hydropic swelling of hepatocytes: 5 to 6 h

## CCOC(=O)C(C)(C)Oc1ccc(Cl)cc1 [clofibrate]
[2]; rat study of liver hyperplasia and liver tumors
  levels of copper in neoplastic liver tissues: increased levels
[2]; rats
  liver finding (pathology): hepatocellular hypertrophy, cellular proliferation, hepatomegaly, induction of CYP450 isozymes, and induction of palmitoyl CoA oxidation

## O=C(O)c1cc(-c2ccc(F)cc2F)ccc1O [diflunisal]
Rat hepatocytes; rat hepatocytes
  LDH (lactic acid dehydrogenase) leakage: increase
  intracellular ATP: decreased

## Cc1ccc(C)c(OCCCC(C)(C)C(=O)O)c1 [gemfibrozil]
[11]
  DT-diaphorase activity: increase
  alpha-tocopherol: decrease

## NN [hydrazine, Hydrazine]
Rat hepatocytes; rat hepatocytes
  GSH: depletion
  LDH (lactic acid dehydrogenase) leakage: leakage
  intracellular ATP: depletion
  rate of protein synthesis: decreased
  viability: dose-dependent loss
[12]
  hepatic adenomas and carcinomas: developed in a dose-dependent manner
[2]; rats
  liver finding (pathology): induction of fatty liver
  liver weight: increases

## COc1ccc2c(c1)c(CC(=O)O)c(C)n2C(=O)c1ccc(Cl)cc1 [indomethacin]
[2]; rats, single dose
  liver and renal microsomal enzymes, including CYP450: reduce

## Cl.Nc1c2c(nc3ccccc13)CCCC2 [tacrine, 1,2,3,4-tetrahydro-9-aminoacridine-hydrochloride]
Rat hepatocytes; primary rat hepatocytes
  cytotoxicity: displayed cytotoxicity
[13]
  cytotoxicity: displayed cytotoxicity
[2]; rats
  liver finding (pathology): have not shown a correlation between tacrine exposure and hepatotoxicity

## CC(=N)S [thioacetamide, Thioacetamide]
[1]; rats
  ALT (alanine aminotransferase) level in serum or plasma: elevated levels
  AST (aspartate aminotransferase) level in serum or plasma: elevated levels
  serum BUN: elevated levels
  serum TNFα: elevated levels
  serum creatinine: elevated levels
  serum total bilirubin: elevated levels

## CCCC(CCC)C(=O)O [valproate, n-dipropylacetic acid]
Rat hepatocytes; cultured rat hepatocytes
  amounts of acyl-CoA esters: increased amounts
Rat hepatocytes; rat hepatocytes
  LDH (lactic acid dehydrogenase) leakage: dose-dependent leakage
[8]; patients
  share of patients with elevated levels of hepatic enzymes: about 40%
[2]; rats
  liver finding (pathology): microvesicular steatosis

## CC(c1cc2ccccc2s1)N(O)C(N)=O (stereo not drawn) [zileuton]
[14]
  levels of liver peroxisomal palmitoyl CoA oxidase: elevated levels
  levels of microsomal cytochromes P450 2B and P450 4A: elevated levels
  liver size: hepatomegaly
